One data set has as its system pancreatic β-cells. Put plainly: Two-dimensional imaging analysis (fluorescence and autoradiography) of pancreas sections. In kind it is in vivo, MIP-GFP mouse. Conditions: without blocking.
The conditions of data set [1]: mouse, in vivo. How it is done: (§1) After 5 minutes, 15 minutes, 30 minutes, 60 minutes, and 120 minutes from the administration, organs were dissected out of the mice (n=5).
as §1
(IB-PEG3)12-Ex4 (0.77 μCi) was administered to unanesthetized 6-week-old ddY mice (male, weight: 30 g) by intravenous injection (through the tail vein). After 5 minutes, 15 minutes, 30 minutes, 60 minutes, and 120 minutes from the administration, organs were dissected out of the mice (n=5). The weight and the radioactivity of each organ were determined, and an accumulation amount (% dose/g) of (IB-PEG3)12-Ex4 was calculated from the radioactivity per unit weight.
as §1
(FB-PEG3)12-Ex4 (5 μCi) was administered to unanesthetized 6-week-old ddY mice (male, weight: 30 g) by intravenous injection (through the tail vein). After 5 minutes, 15 minutes, 30 minutes, 60 minutes, and 120 minutes from the administration, organs were dissected out of the mice (n=5). The weight and the radioactivity of each organ were determined, and an accumulation amount (% dose/g) of (FB-PEG3)12-Ex4 was calculated from the radioactivity per unit weight.
(IB-ePEG12)12-Ex4 (0.21 μCi) was administered to unanesthetized 6-week-old ddY mice (male, weight: 30 g) by intravenous injection (through the tail vein). After 5 minutes, 15 minutes, 30 minutes, 60 minutes, and 120 minutes from the administration, organs were dissected out of the mice (n=5). The weight and the radioactivity of each organ were determined, and an accumulation amount (% dose/g) of (IB-ePEG12)12-Ex4 was calculated from the radioactivity per unit weight.

Procedure for pancreatic β-cells: (IB-PEG3)12-Ex4 (5.6 μCi/100 μl) was administered to an unanesthetized MIP-GFP mouse (male, weight: 20 g) by intravenous injection, and after 30 minutes from the administration, the pancreas was dissected out of the mouse (n=1). Sections were cut out of the dissected pancreas, and each section was placed on a slide glass, covered with a cover glass. The fluorescence and the radioactivity (autoradiography) of each section were determined using an image analyzer (trade name: Typhoon 9410, manufactured by GE Health Care Inc.) (exposure time 24 hours).
Sections were cut out of the dissected pancreas, and each section was placed on a slide glass, covered with a cover glass. The fluorescence and the radioactivity (autoradiography) of each section were determined using an image analyzer (trade name: Typhoon 9410, manufactured by GE Health Care Inc.) (exposure time 48 hours).
Other than these, the fluorescence and the radioactivity were determined in the same manner as above.
(FB-PEG3)12-Ex4 (292 μCi/220 μl) was administered to an unanesthetized MIP-GFP mouse (male, weight: 20 g) by intravenous injection, and after 15 minutes from the administration, the pancreas was dissected out of the mouse (n=1). Sections were cut out of the dissected pancreas, and each section was placed on a slide glass, covered with a cover glass. […]

On to (FB-PEG3)12-Ex4, for which, in the data set with pancreatic β-cells, the “localization of the radioactivity signal versus GFP signal in pancreas sections” value was “substantially consistent with that of the GFP signal”. Besides, in data set [1], the “accumulation in the pancreas” value is on record as “exceeding 15 % dose/g”, the “radioactive accumulation in the bone” value is on record as “small”, the ratio of pancreas/blood entry is on record as “greater than 5” and the ratio of pancreas/liver result is “greater than 10”.
Regarding (IB-PEG3)12-Ex4, the “localization of the radioactivity signal versus GFP signal in pancreas sections” value in the data set on pancreatic β-cells was “substantially consistent with that of the GFP signal”. Further, in data set [1], the “accumulation in the pancreas” value is given as “exceeding 25 % dose/g”, the ratio of pancreas/blood entry is listed as “greater than 5” and the ratio of pancreas/liver result is listed as “greater than 10”.
Regarding (IB-ePEG12)12-Ex4, in data set [1], the “accumulation in the pancreas” value was “exceeding 25 % dose/g”, the ratio of pancreas/blood entry is on record as “greater than 5” and the ratio of pancreas/liver result was “greater than 10”.

Source of the values: US9278146B2, “Peptide derivative and use of the same” (priority 2010, dated 2016).
